pEC50: −log10 of the molar value. Counter-ions that a name gives are not always drawn. Like-named read-outs stand apart in the source and are kept apart here.
System: human ABCA1 promoter
Assay: ABCA1 promoter test (luciferase reporter in stably transfected THP1 cell line)
Assay type: cell-based
Settings: Homo sapiens, read-out: E50 ABCA1
Method: The potency of substances which activate expression of the human ABCA1 gene via its promoter is analyzed by using a stably transfected THP1 cell line (human monocyte cell line) which is referred to herein as ABCA1 reporter cell line. It contains a fragment, 3.2 kb in size and stably integrated into the genome, of the human ABCA1 promoter in front of a luciferase reporter element. Expression of the luciferase reporter gene is only low without addition of an ABCA1 expression activator. The substances stimulating ABCA1 expression bring about, via activation of the ABCA1 promoter, an enhanced expression of the luciferase reporter gene. The luciferase which is formed can be detected via an appropriate substrate by means of chemiluminescence.
Construction of the Cell Line
The ABCA1 reporter line was prepared as follows: firstly the neomycin resistance gene (Acc. No.: AJ000156) was introduced into the luciferase reporter plasmid pLG3basic (#1751, Promega) 3′ below the luciferase reporter element. Subsequently, an ABCA1 promoter fragment, 3.2 kb in size and amplified from human genomic DNA (#6550-1, Clontech) by the polymerase chain reaction, was cloned in 5′ above the luciferase reporter element. The reporter plasmid produced in this way was called pGL3BN-ABCA1P. Luciferase expression in this plasmid is controlled by the ABCA1 promoter. Cloning and sequencing of the construct took place in analogy to the description in Sambrook J et al. (Molecular cloning, Cold Spring Harbor Laboratory Press, 1989). For stable transfection into THP1 cells, firstly pGL3BN-ABCA1P was linearized with a restriction endonuclease and then introduced into the THP1 cells as stated in Ausubel, F. M. et al. (Current protocols in molecular biology, Vol. 1-3, John Wiley & Sons, Inc., 1995).
The activity of ABCA1 expression activators is determined in a 3-day test which is described below:
The ABCA1 reporter cell line comprises suspension cells. These are cultured until the concentration is 0.5×10^6 cells/ml in RPMI medium (#52400-025, Invitrogen) which is mixed with the following additions: 10% FCS (fetal calf serum; #16000-044, invitrogen), 0.5 mg/ml Geneticin (#10131-019, invitrogen) and 1% penicillin-streptomycin solution (#15140-122, invitrogen). The culturing takes place in standard cell culture flasks (#353112, Becton Dickinson) in a cell culture incubator at 37° C. in the presence of 5% CO2.
For the ABCA1 promoter test, the suspension cells are centrifuged at 1200 rpm in 50 ml tubes. The supernatant is aspirated off, and the pellet is resuspended in 15 ml of RPMI medium and counted in a cell counter. After dilution to 175 000 cells/ml, 0.1 μg/ml PMA (phorbol 12-myristate 13-acetate, #8139-5MG, Sigma) is added in order to induce differentiation of the monocytic THP1 suspension cells into adherent macrophages. 35 000 cells in each well are seeded in a 96-well microtiter plate with clear plastic base (#3610, Corning Costar). The plates are incubated in a cell culture incubator at 37° C. and 5% CO2 for 24 h.
The ABCA1 expression activators to be tested are dissolved in a concentration of 10 mM in DMSO. This stock solution is diluted in the RPMI medium (mixed with 0.1 μg/ml PMA) described above. Test substances are tested in 11 different concentrations in the range from […] to 330 pM. The medium of the ABCA1 reporter cell line seeded on day 1 is completely removed by aspiration and the diluted test substances are immediately added to the cells. The dilution and addition of the substances takes place with a pipetting robot (Beckman FX). The final volume of the test substances diluted in medium is 100 μl per well of a 96-well microtiter plate. The DMSO concentration in the test is less than 0.1% v/v in order to avoid cytotoxic effects of the solvent.
The test plates are incubated in an incubator at 37° C. and 5% CO2 for 24 h.
The ABCA1 reporter cells treated with the test substances are removed from the incubator and the medium is aspirated off. […]

[1] = THP-1, ABCA1 reporter cell line (THP1, PMA-differentiated), 24 h incubation, luciferase chemiluminescence

SMILES | pEC50 (THP-1, 24 h) | pEC50 [1]
Cc1ccc(C)c(N2CCN(C(=O)[C@H]3CN(S(=O)(=O)c4cccs4)C[C@H]3c3ccccc3)CC2)c1 (racemic) [Example 117, [4-(2,5-Dimethylphenyl)piperazin-1-yl]-[3,4-cis-4-phenyl-1-(thiophene-2-sulfonyl)pyrrolidin-3-yl]methanone] | 6.54 | –
Cc1ccc([C@@H]2CN(S(=O)(=O)c3c(C)noc3C)C[C@H]2C(=O)N2CCN(c3cc(C)ccc3C)CC2)cc1 [Example 1, [1-(3,5-Dimethylisoxazole-4-sulfonyl)-3,4-trans-4-p-tolylpyrrolidin-3-yl]-[4-(2,5-dimethylphenyl)piperazin-1-yl]methanone trifluoroacetate] | – | 5.55
O=C([C@@H]1CN(S(=O)(=O)c2cc(Cl)c(Cl)s2)C[C@H]1c1ccccc1)N1CCN(c2ccccc2)CC1 [Example 21, [1-(4,5-Dichlorothiophene-2-sulfonyl)-3,4-trans-4-phenylpyrrolidin-3-yl]-(4-phenylpiperazin-1-yl)methanone] | – | 5.34
O=C([C@@H]1CN(S(=O)(=O)c2cccs2)C[C@H]1c1ccccc1)N1CCN(c2cc(Cl)ccc2Cl)CC1 [Example 66, [4-(2,5-Dichlorophenyl)piperazin-1-yl]-[3,4-trans-4-phenyl-1-(thiophene-2-sulfonyl)pyrrolidin-3-yl]methanone trifluoroacetate] | – | 6.36
Cc1ccc(C)c(N2CCN(C(=O)[C@@H]3CN(S(=O)(=O)c4cccc5nonc45)C[C@H]3c3ccccc3)CC2)c1 [Example 68, [1-(Benzene[1,2,5-oxadiazol-4-sulfonyl)-3,4-trans-4-phenylpyrrolidin-3-yl]-[4-(2,5-dimethylphenyl)piperazin-1-yl]methanone trifluoroacetate] | – | 6.06
Cc1ccc(C)c(N2CCN(C(=O)[C@@H]3CN(S(=O)(=O)C(C)C)C[C@H]3c3ccccc3)CC2)c1 [Example 70, [4-(2,5-Dimethylphenyl)piperazin-1-yl]-[3,4-trans-4-phenyl-1-(propan-2-sulfonyl)pyrrolidin-3-yl]methanone trifluoroacetate] | – | 6.04
Cc1ccc(C)c(N2CCN(C(=O)[C@@H]3CN(S(=O)(=O)c4cccnc4)C[C@H]3c3ccccc3)CC2)c1 [Example 72, [4-(2,5-Dimethylphenyl)piperazin-1-yl]-[3,4-trans-4-phenyl-1-(pyridine-3-sulfonyl)pyrrolidin-3-yl]methanone trifluoroacetate] | – | 6.62
O=C([C@@H]1CN(S(=O)(=O)c2cccnc2)C[C@H]1c1ccccc1)N1CCN(c2cc(Cl)ccc2Cl)CC1 [Example 73, [4-(2,5-Dichlorophenyl)piperazin-1-yl]-[3,4-trans-4-phenyl-1-(pyridine-3-sulfonyl)pyrrolidin-3-yl]methanone trifluoroacetate] | – | 6.39
Cc1cccc(S(=O)(=O)N2C[C@@H](C(=O)N3CCN(c4cc(Cl)ccc4Cl)CC3)[C@H](c3ccccc3)C2)c1 [Example 74, [4-(2,5-Dichlorophenyl)piperazin-1-yl]-[3,4-trans-4-phenyl-1-(toluene-3-sulfonyl)pyrrolidin-3-yl]methanone trifluoroacetate] | – | 6.47
COc1ccc(S(=O)(=O)N2C[C@@H](C(=O)N3CCN(c4cc(Cl)ccc4Cl)CC3)[C@H](c3ccccc3)C2)cc1 [Example 75, [4-(2,5-Dichlorophenyl)piperazin-1-yl]-[1-(4-methoxybenzenesulfonyl)-3,4-trans-4-phenylpyrrolidin-3-yl]methanone trifluoroacetate] | – | 6.01
COc1ccc(OC)c(N2CCN(C(=O)[C@@H]3CN(S(=O)(=O)CC(F)(F)F)C[C@H]3c3ccccc3)CC2)c1 [Example 76, [4-(2,5-Dimethoxyphenyl)piperazin-1-yl]-[3,4-trans-4-phenyl-1-(2,2,2-trifluoroethanesulfonyl)pyrrolidin-3-yl]methanone trifluoroacetate] | – | 5.51
COc1ccc(S(=O)(=O)N2C[C@@H](C(=O)N3CCN(c4cc(OC)ccc4OC)CC3)[C@H](c3ccccc3)C2)cc1 [Example 79, [4-(2,5-Dimethoxyphenyl)piperazin-1-yl]-[1-(4-methoxybenzenesulfonyl)-3,4-trans-4-phenylpyrrolidin-3-yl]methanone trifluoroacetate] | – | 5.80
COc1ccc(OC)c(N2CCN(C(=O)[C@@H]3CN(S(=O)(=O)c4cccc(C)c4)C[C@H]3c3ccccc3)CC2)c1 [Example 80, [4-2,5-Dimethoxyphenyl)piperazin-1-yl]-[3,4-trans-4-phenyl-1-(toluene-3-sulfonyl)pyrrolidin-3-yl]methanone trifluoroacetate] | – | 5.50
COc1ccc(OC)c(N2CCN(C(=O)[C@@H]3CN(S(=O)(=O)c4c(C)noc4C)C[C@H]3c3ccccc3)CC2)c1 [Example 81] | – | 5.74
COc1cccc(S(=O)(=O)N2C[C@@H](C(=O)N3CCN(c4cc(OC)ccc4OC)CC3)[C@H](c3ccccc3)C2)c1 [Example 82, [4-(2,5-Dimethoxyphenyl)piperazin-1-yl]-[1-(3-methoxybenzenesulfonyl)-3,4-trans-4-phenylpyrrolidin-3-yl]methanone trifluoroacetate] | – | 5.83
COc1ccc(OC)c(N2CCN(C(=O)[C@@H]3CN(S(=O)(=O)c4cccc5nonc45)C[C@H]3c3ccccc3)CC2)c1 [Example 83, [1-(Benzo[1,2,5]oxadiazole-4-sulfonyl)-3,4-trans-4-phenylpyrrolidin-3-yl]-[4-1-(2,5-dimethoxyphenyl)piperazin-1-yl]methanone trifluoroacetate] | – | 5.52
COc1ccc(OC)c(N2CCN(C(=O)[C@@H]3CN(S(=O)(=O)c4cccs4)C[C@H]3c3ccccc3)CC2)c1 [Example 84, [4-(2,5-Dimethoxyphenyl)piperazin-1-yl]-[3,4-trans-4-phenyl-1-(thiophene-2-sulfonyl)pyrrolidin-3-yl]methanone trifluoroacetate] | – | 5.57
Cc1ccccc1S(=O)(=O)N1C[C@@H](C(=O)N2CCN(c3cc(Cl)ccc3Cl)CC2)[C@H](c2ccccc2)C1 [Example 85, [[4-(2,5-Dichlorophenyl)piperazin-1-yl]-[3,4-trans-4-phenyl-1-(toluene-2-sulfonyl)pyrrolidin-3-yl]methanone trifluoroacetate] | – | 6.59
Cc1ccc(C)c(N2CCN(C(=O)[C@@H]3CN(S(=O)(=O)c4c(C)noc4C)C[C@H]3c3ccc4c(c3)OCO4)CC2)c1 [Example 87, [3,4-trans-4-Benzo[1,3]dioxol-5-yl-1-(3,5-dimethylisoxazole-4-sulfonyl)-pyrrolidin-3-yl]-[4-(2,5-dimethylphenyl)piperazin-1-yl]methanone trifluoroacetate] | – | 5.91
COc1cccc(S(=O)(=O)N2C[C@@H](C(=O)N3CCN(c4cc(C)ccc4C)CC3)[C@H](c3ccc4c(c3)OCO4)C2)c1 [Example 88, [3,4-trans-4-Benzo[1,3]dioxol-5-yl-1-(3-methoxybenzenesulfonyl)pyrrolidin-3-yl]-[4-(2,5-dimethylphenyl)piperazin-1-yl]methanone trifluoroacetate] | – | 5.57
Cc1ccc(C)c(N2CCN(C(=O)[C@@H]3CN(S(=O)(=O)c4c(C)noc4C)C[C@H]3C)CC2)c1 [Example 90, [[1-(3,5-Dimethylisoxazole-4-sulfonyl)-3,4-trans-4-methylpyrrolidin-3-yl]-[4-(2,5-dimethylphenyl)piperazin-1-yl]methanone trifluoroacetate] | – | 4.78

Reference: US7468369B2, “Sulfonyl pyrrolidines, method for producing the same and their use as drugs” (Sanofi-Aventis, priority 2005, dated 2008)
